Results on 6 compounds are retold here after patent US20240350481A1, “USE OF N-MYRISTOYL TRANSFERASE (NMT) INHIBITORS IN THE TREATMENT OF CANCER, AUTOIMMUNE DISORDERS, AND INFLAMMATORY DISORDERS” (PACYLEX PHARMACEUTICALS INC., priority 2020, published 2024).

Data set [1] deals with Src and Lyn SFK protein levels. Put plainly: SFK protein levels (Western blot). Conditions: BL2 cells treated with PCLX-001, 10 μM MG132 for the last 6 hrs. It is filed as cell-based. The protocol: Cells were harvested, washed in cold PBS, and lysed in […] SDS-RIPA buffer (50 mM Tris-HCl pH 8.0, 150 mM NaCl, 1% Igepal CA-630, 0.5% sodium deoxycholate, 2 mM MgCL2, 2 mM EDTA with 1×complete protease inhibitor; (Roche Diagnostics) by rocking for 15 min at 4° C. The lysates were centrifuged at 16,000 g for 10 min at 4° C., and the post-nuclear supernatant was collected.
Protein concentrations were determined by BCA assay (Thermo Scientific) according to manufacturer's instructions. Samples were prepared for electrophoresis by the addition of 5× loading buffer and boiled for 5 min. If not stated otherwise, […] of total protein per lane is loaded on a 12.5% acrylamide gels. After electrophoresis, gels are transferred onto […] nitrocellulose membrane (Bio-Rad) thereafter probed with antibodies as described in materials section.
(Immunoblotting shows a protein as a band on a membrane.)

The next data set relates to DOHH2 tumors. The experiment in a line: DOHH2 xenograft, tumor growth. It is filed as in vivo, mouse. To be noted: doxorubicin treatment. The method, then: DOHH2 xenograft study at Charles River's facility: […] On Day 1 of the study, animals were given a rehydration solution ad libitum in an effort to reduce dehydration during the dosing phase of the study. […] The dose volume was 10 mL/kg.

A further data set concerns BL2 xenografts. Put plainly: BL2 xenograft, tumor growth. It is filed as in vivo, mouse. Conditions: doxorubicin. The text has this: BL2 xenograft study at Jackson Laboratory: One hundred five (105) 6 week old female NOD.CB17-Prkdc scid/J (NOD scid, Stock #001303) mice were transferred to the in vivo research laboratory in Sacramento, CA. The mice were ear notched for identification and housed in individually and positively ventilated polysulfone cages with HEPA filtered air at a density of 5 mice per cage. Initially cages were changed every two weeks. The animal room was lighted entirely with artificial fluorescent lighting, with a controlled 12 hour light/dark cycle (6 am to 6 pm light). The normal temperature and relative humidity ranges in the animal rooms were 20-26° C. and 30-70%, respectively. The animal rooms were set to have up to 15 air exchanges per hour. Filtered tap water, acidified to a pH of 2.5 to 3.0, and standard lab chow were provided ad libitum.
(§1) The dose volume was 10 mL/kg.
TGI (%)=(Vcontrol−Vtreated)/(Vcontrol−Vnitial)*100.

The conditions of data set [2]: mouse, in vivo. The method, then:
Data collected were the same as in the Charles River xenograft study—clinical signs, body weight, tumor volume, blood samples from 3 mice/group for hematology and clinical chemistry (ALT, AST, BUN, creatinine, CK), and tissue samples collected and fixed from the same 3 mice. Liver, kidneys, and small intestine also were weighed.
as §1

A short description of data set [3]: Toxicology in DOHH2 xenograft mice. To be noted: DOHH2 xenograft; Doxorubicin 3 mg/kg Once a week; normal [5-20].
Description: (§4) Mice were observed daily for clinical signs of toxicity and effects on body weight. After the last dose, three mice/group were euthanized and necropsied. At euthanasia, blood samples were taken for hematology analyses and to measure AST and CK activities and bilirubin and creatinine concentrations. At necropsy, samples of samples of femur, both kidneys, liver, small intestine, and injection site were taken and fixed.
(§5) The dose volume was 10 mL/kg. At the end of the two-to three-week dosing period, mice were euthanized and three/group were necropsied. Mice that died or were euthanized early for humane reasons also were necropsied. In life, mice were monitored regularly and weighed daily, and tumors were measured with digital Vernier calipers (Mitutoyo) every other day. Tumor volume was calculated as length (mm)×width (mm)2/2; length and width were the longest and shortest diameters, respectively. At euthanasia, at the end of the dosing period blood samples were taken for hematology analyses and clinical chemistry analyses that included AST and CK activities and bilirubin and creatinine concentrations (plus ALT activity and BUN concentration in the Jackson Laboratory study). At necropsy, samples of femur, both kidneys, liver, small intestine, and injection site were collected and fixed. These were subsequently processed and examined by light microscopy for histopathologic findings. Also at necropsy, the tumors were removed and divided in two. One piece was fixed in 10% neutral buffered formalin for 24 h at room temperature and embedded in paraffin; the other was snap frozen for RNA and protein analysis. Tumor growth inhibition (TGI) for all xenograft experiments was calculated following the formula:
Data set [4] is described as follows: Toxicology in DLBCL3 patient derived xenograft mice. In kind it is in vivo, mouse. To be noted: within the first 7 days. The protocol: as §1
In general terms: Xenograft models place foreign cells or tissue in a host animal.

For data set [5] the following is noted: mouse, in vivo. The source holds these as a separate data set.
Description: as §4, §5
The subject of another data set is T cells. The experiment in a line: Multiplex cytokine array, activated T cell supernatant. It is filed as cell-based, human. Conditions: 48 h drug, then T cell activator with drug 2 more days. The protocol:
(§2) Human peripheral blood mononuclear cells (PBMC) and purified T cells from healthy donors were purchased from […] Technologies (CA). Cells (7.5×10^6/ml) were cultured in the RPMI supplementing with 10% heat-inactivated fetal bovine serum (vWR), 1% penicillin/streptomycin (SigmaMillipore), 1% sodium pyruvate, and 1% non-essential amino acids (Gibco) in 24 well plates in the presence of 100 IU/ml interleukin 2 ([…] Technologies or HIV reagent program (managed by ATCC).
(§3) Then, cells were induced with T cell activator ([…]) in the presence of the drugs for 2 more days. After 4 days, the viability of treated T cells was analyzed using Flow cytometry. The supernatants for both PBMC and T cells were collected for further analysis.
The collected supernatants were analyzed for various biomarkers using multiplex cytokine array (Eve Technologies Discovery assay, Calgary, CA) either human cytokine/chemokine 71-Plex (HD71) for PBMC or human proinflammatory focused 15-Plex (HDF15) for T cells samples.

The conditions of data set [6]: Mouse IV; cited from earlier work.
Data set [7] is described as follows: T cell viability by flow cytometry. It is filed as cell-based. To be noted: human; for viability at 4 days, 20 nM: Drug 20 nM; for viability at 4 days, 100 nM: Drug 100 nM; for viability at 4 days, 500 nM: Drug 500 nM. The method, then:
as §2, §3
On the technique in general: A flow cytometer gives signals particle by particle.

Data set [8] concerns BCR signaling in BL2 cells. Put plainly: BCR signaling after anti-IgM in BL2 cells (Western blot). Conditions: 0.1 or 1.0 μM, 48 hrs. It is filed as cell-based. The method, then: IM9, Ramos, SU-DHL-10 and COS-7 were purchased from ATCC. BL2, DOHH2, WSU-DLCL2 & BJAB were purchased from DSMZ (Germany). Ramos and BL2 were kind gifts of Drs. Jim Stone and Robert […] of University of Alberta. VDS isolation was described in Tosato G, et al. (reference 47). VDS, BJAB and SU-DHL-10 were kind gifts of Dr. Michael Gold of the University of British Columbia. HUVEC cells (pooled from up to 4 umbilical cords) were purchased from PromoCell. […] Cell lines were tested regularly for mycoplasma contamination using MycoAlert Plus Mycoplasma Detection Kit (Lonza, ME, USA). All cell lines tested negative for mycoplasma contamination. […] Please see supplementary Table 3 for cell line names, types and histology. For transfections, adherent cells COS-7 cells were transfected using X-tremeGENE9 DNA (Roche) transfection reagent according to manufacturer's instructions. For BCR activation experiments, cells were incubated with 25 μg/ml of Goat F(ab')2 anti-human IgM (or anti-human IgM (μ chain) showing identical BCR activation properties) for 2 minutes and the activation was stopped by the addition of 1 mM vanadate (Bio Basic Inc) solution in PBS. Protein concentrations were determined by BCA assay (Thermo Scientific) according to manufacturer's instructions. Samples were prepared for electrophoresis by the addition of 5× loading buffer and boiled for 5 min. […]

The mark [9] stands for this setting: purified T cells from healthy donors, T cells viability (#1).
Setting [10] is: purified T cells from healthy donors, T cells viability (#2).
Where [11] appears, read: purified T cells from healthy donors, T cells viability (#3).

Each structure is given as a SMILES string. Structures can show the parent of a compound that is named as a salt. Residues, ends and D or L forms follow the SMILES beside them. *: point of attachment. Cbz = O=C(OCc1ccccc1)*

For the compound `CC(C)C[C@@H](C=O)NC(=O)[C@H](CC(C)C)NC(=O)[C@H](CC(C)C)NC(=O)OCc1ccccc1` [MG132] (Cbz-Leu-Leu-Leu-aldehyde), the “levels of the 4 SFK proteins (Src, Lyn, Hck, Lck)” value in data set [1] is recorded as “partial or complete restoration”.

Regarding `COc1cccc2c1C(=O)c1c(O)c3c(c(O)c1C2=O)C[C@@](O)(C(=O)CO)C[C@@H]3O[C@H]1C[C@H](N)[C@H](O)[C@H](C)O1` [doxorubicin, Doxorubicin hydrochloride, reference compound], the TGI (in general, the reduction of tumour growth relative to the control group) in the data set on DOHH2 tumors amounted to 57%. The “effect on BL2 tumor growth” value in the data set with BL2 xenografts was “no effect”. In addition, in [2], the “Absolute Lymphocyte cells” value turned out to be 2.28 ± 0.4, the “Absolute Monocyte cells” value amounted to 0.7 ± 0.19, the Hemoglobin is 13.6 ± 0.21 g/dL and the MCH amounted to 13.6 ± 0.12. The compound also displayed an ROW % in data set [2] of 17.03 ± 0.15%. In data set [3], this compound yielded an MPV of 6.2 ± 0.15 fL. In addition, in [4], the “toxicity of doxorubicin treatment” value is “severe drug toxicity and death in the majority of tumor bearing mice”. For the same compound, in data set [5], the reduced body weight entry is listed as “up to 8%”.

On to `Cc1nn(C)c(C)c1N[S+](=O)([O-])c1c(Cl)cc(-c2ccnc(N3CCNCC3)c2)cc1Cl` [PCLX-002], for which, in the data set on T cells, the “level of IL-5, IL-10 and IL-13” value is “significantly reduced”; the “level of IL-6, IL-8 and IFN-gamma” value is “significantly reduced”. Further, the Clearance in data set [6] was 5 mL/min/kg. Moreover, in data set [7] (T cells viability (#1)), the viability (usually a per cent measure of how many cells are alive, often set against a control) at 4 days, 20 nM came out at 9%; the viability at 4 days, 100 nM turned out to be 9%; the viability at 4 days, 500 nM was 9%. In [7] (T cells viability (#2)), this compound had a viability at 4 days, 20 nM of 65%; a viability at 4 days, 100 nM of 65%; a viability at 4 days, 500 nM of 65%. Moreover, in data set [7] (T cells viability (#3)), the viability at 4 days, 20 nM was determined as 75%; the viability at 4 days, 100 nM was found to be 75%; the viability at 4 days, 500 nM worked out at 69%.

With `Cc1nn(C)c(C)c1CCOc1c(-c2ccc3c(c2)c(CN(C)C)nn3C)ccc(F)c1F` [IMP-1088, reference compound], in the data set on T cells, the TNFa secretion entry is recorded as “increasing the secretion”; the “level of IL-5, IL-10 and IL-13” value was “significantly reduced”; the “level of IL-6, IL-8 and IFN-gamma” value is given as “significantly reduced”. Further, in [7] (setting [9]), the viability at 4 days, 20 nM turned out to be 9%; the viability at 4 days, 100 nM came out at 10%; the viability at 4 days, 500 nM was found to be 6%. Further, in data set [7] (setting [10]), the viability at 4 days, 20 nM was found to be 61%; the viability at 4 days, 100 nM is 59%; the viability at 4 days, 500 nM was 59%. In data set [7] (setting [11]), this compound showed a viability at 4 days, 20 nM of 74%; a viability at 4 days, 100 nM of 70%; a viability at 4 days, 500 nM of 70%.

On to `Cc1nc(Nc2ncc(C(=O)Nc3c(C)cccc3Cl)s2)cc(N2CCN(CCO)CC2)n1` [dasatinib], for which the “HGAL and Arf1 protein levels” value in data set [8] was “no effect”.

For `C=CC(=O)N1CCC[C@@H](n2nc(-c3ccc(Oc4ccccc4)cc3)c3c(N)ncnc32)C1` [ibrutinib], in [8], the “HGAL and Arf1 protein levels” value is listed as “no effect”.
